Test results published in patent US9857359B2, “Methods for determining drug efficacy using cereblon-associated proteins” (CELGENE CORPORATION, priority 2012, dated 2018).

Tests used:
Aiolos [1] = assay: Overexpressed flag-Aiolos-myc in AU565 cells, western blot; assay type: cell-based
Description: In some experiments, cell lines were transfected with an Aiolos overexpression vector using Lipofectamine reagent in a batch method. Cells were seeded in a 12 well plate at 1×10^5 cells in a 3 mL volume per well. Where specified, cells were pretreated with MG132 at 10 uM for 1 hour, or DMSO was added as a control. Following the pretreatment, Compound A was added directly to the cell culture media at the specified concentration.
Cells were harvested and lysed in Pierce #89900 Ripa buffer containing 2× protease inhibitor cocktail from Pierce #78442. The lysate was applied to a QiaShredder to remove DNA. Total protein yield was measured using BioRad DC protein determination kit (Cat#500-0112). Lysates were stored at −80° C. until use. Samples were applied to BioRad Criterion PreCast gels, 10% (Bio-Rad#345-0010) and transferred to Bio-Rad Nitrocellulose/Filter Paper Sandwiches (#162-0233) for western blot analysis.

Aiolos [2] = assay: Aiolos protein expression in T cells with or without proteasome inhibitor; assay type: cell-based
Description: U266 cells were obtained from ATCC (American Type Culture Collection, Manassas, Va., USA). DF15 cells were obtained from John Shaughnessy (University of Arkansas, Little Rock, Ark., USA). CD19+ B cells were purchased from HemaCare BioResearch Products (Van Nuys, Calif.). Cells were grown in RPMI-1640 medium (Cellgro, Manassas, Va.) containing 10% (V/V) heat-inactivated fetal bovine serum (Gibco, Grand Island, N.Y., USA) supplemented with 2 mM glutamine. […] Primary T cells were isolated from human leukocytes (Blood Center of New Jersey, East Orange, N.J.) by centrifugation through FICOLL® centrifugation medium following the ROSETETTESEP™ protocol (Stem Cell Technologies, Vancouver, Canada). […] Dexamethasone (Sigma, St. Louis, Mo.), melphalan (Sigma, St. Louis, Mo.) and bortezomib (Selleck Chemicals, Houston, Tex.) treated was for 6 hours. The final DMSO concentration is 0.1%. Cells were pre-treated with 10 μM MG-132 (Calbiochem Biochemicals, Billerica, Mass.) for 30 minutes prior to drug addition. Cells were harvested, washed in PBS and cell lysates separated on SDS-PAGE gels (Bio-Rad, Hercules, Calif.). […] The blots were analyzed on ODESSEY® imager (LI-COR Biosciences, Lincoln, Nebr.).

Aiolos [3] = assay: Aiolos inhibition by cohort in cancer patients, flow cytometry; assay type: in vivo, human; conditions: by time and dose
Description: Cancer patients were administered Compound A at doses of 0.5 mg, 1 mg, 1.5 mg, 2 mg, 2.5 mg, 3 or 3.5 mg. Blood samples were drawn immediately prior to dosing and 1.5 hr and 5 hr post single dose of Compound A. Peripheral blood mononuclear cells were FICOLL®-isolated from whole blood samples and viably frozen in DMSO. The cells were washed twice with 2 mL of cold phosphate buffer saline (PBS), then permeabilized by adding 2 mL of cold BD CYTOFIX/CYTOPERM™ buffer and incubated on ice for 15 minutes. The cells were centrifuged then washed twice with BD PERM/WASH™ buffer, then resuspended in 40 μl of BD PERM/WASH™ buffer. Cells were stained with anti-CD3 or anti-CD19 antibody, and 20 μl of anti-Aiolos Ab (Santa Cruz Santa Cruz, rabbit polyclonal IgG, cat#sc-101982 at 1:200 dilution with staining buffer), or 20 μL of appropriate isotype controls to cells. Cells were mixed thoroughly and incubated at room temperature for 30 minutes in the dark, washed once with BD perm/wash buffer, then resuspended in […] of BD PERM/WASH™ buffer, and 20 μL of secondary antibody was added before analysis on a flow cytometer.

[4] = system: interferon regulatory factor 4 (IRF4); assay: IRF4 expression in DLBCL cells; assay type: cell-based; conditions: ABC-DLBCL cells
Ikaros = Ikaros (Homo sapiens, UniProt Q13422); assay: Ikaros immunohistochemistry in H929 xenograft tumors; assay type: in vivo, SCID mice; design: formalin fixed paraffin-embedded xenograft tumour sections were stained with antibodies; endogenous in cells; host or cells: NCI-H929 tumour xenograft in female SCID mice; conditions: 7 days oral daily
Ikaros, sequence (Q13422 whole entry): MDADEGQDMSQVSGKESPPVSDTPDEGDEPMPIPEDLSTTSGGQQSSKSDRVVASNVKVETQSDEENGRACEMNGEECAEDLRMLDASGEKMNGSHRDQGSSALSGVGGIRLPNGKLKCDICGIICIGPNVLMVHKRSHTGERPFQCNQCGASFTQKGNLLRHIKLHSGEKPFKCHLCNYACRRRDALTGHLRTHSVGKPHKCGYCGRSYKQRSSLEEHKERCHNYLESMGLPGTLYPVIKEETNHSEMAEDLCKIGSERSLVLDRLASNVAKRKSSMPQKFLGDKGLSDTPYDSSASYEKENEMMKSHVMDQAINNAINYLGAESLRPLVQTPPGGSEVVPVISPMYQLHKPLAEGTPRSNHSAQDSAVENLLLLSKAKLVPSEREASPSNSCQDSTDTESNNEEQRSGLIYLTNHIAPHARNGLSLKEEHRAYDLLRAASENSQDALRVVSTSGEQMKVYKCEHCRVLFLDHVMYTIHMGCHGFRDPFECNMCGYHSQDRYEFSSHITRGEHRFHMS
Description: Female SCID mice (Fox Chase SCID®, C.B-17/Icr-Prkdcscid, Charles River) (Wilmington, Mass.) were injected subcutaneously in the right flank with total of 1×10^7 NCI-H929 tumor cells in 50% matrigel (BD Biosciences). […] Mice were monitored daily for health status as well as tumor growth. Tumors of all mice were measured with a digital caliper, and volumes were calculated with the following formula: tumor volume (mm^3)=length (mm)×width (mm)^2.
Four micron thick formalin fixed paraffin-embedded xenograft tumour sections were stained with antibodies to CRBN (rabbit monoclonoal Celgene CRBN65), Aiolos (rabbit polyclonal antibody; Santa Cruz, Dallas, Tex.), and Ikaros (rabbit polyclonal antibody; Millipore, Billerica, Mass.) using the Bond-Max automated slide strainer (Leica Microsystems, Buffalo Grove, Ill.) and the associated Bond Polymer Refine Detection Kit. Antigen retrieval was performed with Epitope Retrieval 2 (pH 9.0) for 20 min at 100° C. on the instrument. The slides were blocked for endogenous peroxidase activity with Peroxide Block for 5 min at room temperature. […] IHC staining intensity was scored on a scale of 0-3 (0=negative, 1=weak, 2=intermediate, 3=strong). Range of cells with specific immunoreactivity (<1%=0, 1-25%=1, 26-75%=2, and >75%=3) were recorded. Total score of the immunoreactivity intensity was calculated as product of intensity and range of positive cells.

NF-κB = assay: BCR-dependent NF-κB activation in DLBCL cells; assay type: cell-based; conditions: via IRF4 inhibition

Compound	Inhibition of Aiolos with proteasome inhibitor MG-132 (Aiolos [1]; MG132 pretreatment)	Time at which reduction of overexpressed Aiolos begins to show (Aiolos [1]; after the treatment)	Aiolos expression (Aiolos [2]; absence of a proteasome inhibitor)	Aiolos expression (Aiolos [2]; proteasome inhibitor present)	Aiolos inhibition in B cells (Aiolos [3])	Aiolos inhibition in T cells (Aiolos [3])	IRF4 level associated with tumoricidal effect [4]	Ikaros in H929 MM cells in mice by immunohistochemistry (Ikaros)	BCR-dependent NF-κB activation (NF-κB)
Cc1nc2cccc(N)c2c(=O)n1C1CCC(=O)NC1=O (stereo not drawn) [Compound A, 3-(5-amino-2-methyl-4-oxo-4H-quinazolin-3-yl)-piperidine-2,6-dione]	rescued by the addition of proteasome inhibitor MG-132	about 5 hours	inhibit the expression of Aiolos	little inhibition was observed	Aiolos inhibition correlates with Compound A exposure	Aiolos inhibition correlates with Compound A exposure	–	–	–
Nc1cccc2c1CN(C1CCC(=O)NC1=O)C2=O (stereo not drawn) [lenalidomide]	–	–	–	–	–	–	downregulation of interferon regulatory factor 4 (IRF4)	induces Aiolos and Ikaros degradation	caused downregulation of B cell receptor (BCR)-dependent NF-κB activation
